Measured values: ChEMBL document CHEMBL4184130, “Zamamidine D, a Manzamine Alkaloid from an Okinawan Amphimedon sp. Marine Sponge” (J Nat Prod, 2017)
Converted amounts (≈) assume the structure as drawn.

Assays:
Escherichia coli = test: Antimicrobial activity against Escherichia coli ATCC 25922 incubated for 72 hrs; type: functional; settings: ATCC 25922, 72 h
Staphylococcus aureus = test: Antimicrobial activity against Staphylococcus aureus 209P incubated for 72 hrs; type: functional
Bacillus subtilis = test: Antimicrobial activity against Bacillus subtilis PC1219 incubated for 72 hrs; type: functional; settings: PC1219, 72 h
Micrococcus luteus = test: Antimicrobial activity against Micrococcus luteus IFM2066 incubated for 72 hrs; type: functional; settings: IFM2066, 72 h
Aspergillus niger = test: Antimicrobial activity against Aspergillus niger IFM62678 incubated for 72 hrs; type: functional, organism-based; settings: IFM62678, 72 h
[1] = system: Trichophyton mentagrophytes; test: Antimicrobial activity against Trichophyton mentagrophytes IFM62679 incubated for 72 hrs; type: functional, organism-based; settings: IFM62679, 72 h
Candida albicans = test: Antimicrobial activity against Candida albicans IFM62680 incubated for 72 hrs; type: functional, organism-based; settings: IFM62680, 72 h
Cryptococcus neoformans = test: Antimicrobial activity against Cryptococcus neoformans IFM62681 incubated for 72 hrs; type: functional, organism-based; settings: IFM62681, 72 h

MIC (Escherichia coli): 32 µg/mL (≈ 44.9 µM)
MIC (Staphylococcus aureus): 8 µg/mL (≈ 11.2 µM)
MIC (Bacillus subtilis): 8 µg/mL (≈ 11.2 µM)
MIC (Micrococcus luteus): 8 µg/mL (≈ 11.2 µM)
IC50 (Aspergillus niger): 16 µg/mL (≈ 22.4 µM)
IC50 [1]: 8 µg/mL (≈ 11.2 µM)
IC50 (Candida albicans): 16 µg/mL (≈ 22.4 µM)
IC50 (Cryptococcus neoformans): 2 µg/mL (≈ 2.8 µM)
Structure (SMILES): NCCc1c(C(C2=C[C@@]3(O)CC/C=C\CCCCN4CC[C@@H]2[C@]2(C[C@@H]5/C=C\CCCCN5[C@H]23)C4)c2[nH]c3ccccc3c2CCN)[nH]c2ccccc12
